Values of other authors in patent publication US9163009B2, “Salts of raltegravir” (priority 2011, dated 2015).

What was measured:
[1] = in vivo
[2] = water

Row | Structure (SMILES) | bioavailability over raltegravir [1] | aqueous solubility [2]
1 | Cc1nnc(C(=O)NC(C)(C)c2nc(C(=O)NCc3ccc(F)cc3)c([O-])c(=O)n2C)o1.[K+] [Form 1] | superior bioavailability | 
2 | Cc1nnc(C(=O)NC(C)(C)c2nc(C(=O)NCc3ccc(F)cc3)c(O)c(=O)n2C)o1 [Raltegravir, N-(4-fluorobenzyl)-5-hydroxy-1-methyl-2-(1-methyl-1-{[(5-methyl-1,3,4-oxadiazol-2-yl)carbonyl]amino}ethyl)-6-oxo-1,6-dihydropyrimidine-4-carboxamide] |  | poor
3 | Cc1nnc(C(=O)NC(C)(C)c2nc(C(=O)NCc3ccc(F)cc3)c([O-])c(=O)n2C)o1.[K+] [potassium salt of raltegravir] |  | significantly more soluble
